Results on 26 compounds are retold here after patent publication US20070032477A1, “Pteridine derivatives useful for making pharmaceutical compositions” (priority 2003, published 2007).

For test [1], the system named is production of TNF-α by PBMC in response to stimulation by LPS. In words: TNF-α assay. The class given is cell-based, human. Particulars: LPS 1 μg/ml, 72 hours, sandwich ELISA. As for the experimental part:
Peripheral blood mononuclear cells (herein referred as PBMC), in response to stimulation by lipopolysaccharide (hereinafter LPS), a gram-negative bacterial endotoxin, produce various […], in particular human TNF-α. Inhibition of the activation of PBMC can therefore be measured by the level of suppression of the production of TNF-α by PBMC in response to stimulation by LPS.
Such inhibition measurement was performed as follows: PBMC were isolated from heparinized peripheral blood by density gradient centrifugation over Lymphoprep (commercially available from Nycomed, Norway). LPS was then added to the PMBC suspension in complete medium (10^6 cells/ml) at a final concentration of 1 μg/ml. The pteridine derivative to be tested was added at different concentrations (0.1 μM, 1 μM and 10 μM) and the cells were incubated at 37° C. for 72 hours in 5% CO2. The supernatants were collected, then TNF-α concentrations were measured with respectively an anti-TNF-α antibody in a sandwich ELISA (Duo Set ELISA human TNFα, commercially available from R&D Systems, United Kingdom). The calorimetric reading of the ELISA was measured by a Multiskan RC plate reader (commercially available from ThermoLabsystems, Finland) at 450 nm (reference wavelength: 690 nm). Data analysis was performed with Ascent software 2.6. (also from ThermoLabsystems, Finland): a standard curve (recombinant human TNFα) was drawn and the amount (pg/ml) of each sample on the standard curve was determined.
The % suppression of human TNFα production by the pteridine derivatives of the invention (drugs) was calculated using the formula: [formula]
For orientation: ELISA stands for enzyme-linked immunosorbent assay.

Test [2] has as its system mixed lymphocyte reaction (PBMC with allogeneic PBMC or Eppstein-Barr Virus-transformed human B cells as stimulator cells). The test can be described thus: Mixed lymphocyte reaction (MLR) assay. It is filed as cell-based. The conditions noted are these: lowest concentration giving 50% suppression of the MLR; [3H]-thymidine. On the procedure: Pteridine derivatives were first dissolved (10 mM) in dimethylsulfoxide (hereinafter referred as DMSO) and further diluted in culture medium before use for the following in vitro experiments. The commercially available culture medium consisted of RPMI-1640+10% foetal calf serum (FCS). Some pteridine derivatives described in the previous examples (as indicated in table 1) were tested in the following mixed lymphocyte reaction (MLR) assay.
Peripheral blood mononuclear cells (hereinafter referred as PBMC) were isolated from heparinized peripheral blood by density gradient centrifugation over Lymphoprep (Nycomed, Maorstua, Norway). Allogeneic PBMC or Eppstein-Barr Virus-transformed human B cells [commercially available under the trade name RPM11788 (ATCC name CCL156)] which strongly express B7-1 and B7-2 antigens were used as stimulator cells after irradiation with 30 Gy. MLR was performed in triplicate wells. After 5 days incubation at 37° C., 1 μCi [^3H]-thymidine was added to each cup. After a further 16 hours incubation, cells were harvested and counted in a […]. Inhibition of proliferation by a compound (drug) described in some of the previous examples was counted using the formula: [formula] wherein cpm is the thymidine count per minute. The MLR assay is regarded by those skilled in the art as an in vitro analogue of the transplant rejection since it is based on the recognition of allogeneic major histocompatibility antigens on the stimulator leukocytes, by responding lymphocytes.

Usually IC50 stands for the concentration that gives 50% inhibition. Take `COCCOC(=O)N1CCN(c2nc(N)nc3ncc(-c4ccc(OC)c(OC)c4)nc23)CC1` [Example 97]: the values for the IC50 in test [1] and in test [2] were 300 nM and 240 nM, respectively.
On the same counts, the results for `COc1ccc(-c2cnc3nc(N)nc(N4CCN(C(=O)Nc5ccccc5)CC4)c3n2)cc1OC` [Example 99, 2-amino-4-(N-phenyl-carbamoyl-piperazin-1-yl)-6-(3,4-dimethoxyphenyl)pteridine] are 90 nM and 3.4 nM.
On the same counts, the results for `COc1ccc(-c2cnc3nc(N)nc(N4CCN(C(=O)Nc5ccc(C#N)cc5)CC4)c3n2)cc1OC` [Example 102, 2-amino-4-(N-4-cyanophenylcarbamoyl-piperazin-1-yl)-6-(3,4-dimethoxyphenyl)pteridine] are 630 nM and 74 nM.
As for `COc1ccc(-c2cnc3nc(N)nc(N4CCN(C(=O)Nc5cccc(C)c5)CC4)c3n2)cc1OC` [Example 103, 2-amino-4-(N-3-methylphenylcarbamoyl-piperazin-1-yl)-6-(3,4-dimethoxyphenyl)pteridine], the concentration for half-maximal inhibition (IC50) in test [1] came out at 100 nM; in test [2] it was 6.5 nM.
In the case of `COc1ccc(-c2cnc3nc(N)nc(N4CCN(C(=O)NCc5ccc(F)cc5)CC4)c3n2)cc1OC` [Example 105, 2-amino-4-(N-4-fluorobenzylcarbamoyl-piperazin-1-yl)-6-(3,4-dimethoxyphenyl)pteridine], the IC50 in test [1] was determined as 700 nM; in test [2], 37 nM.
On the same counts, the results for `COc1ccc(-c2cnc3nc(N)nc(N4CCN(C(=O)Nc5ccc(F)c(Cl)c5)CC4)c3n2)cc1OC` [Example 106, 2-amino-4-(N-3-chloro-4-fluorophenylcarbamoyl-piperazin-1-yl)-6-(3,4-dimethoxyphenyl)pteridine] are 1400 nM and 58 nM.
On the same counts, the results for `CCCCNC(=O)N1CCN(c2nc(N)nc3ncc(-c4ccc(OC)c(OC)c4)nc23)CC1` [Example 109, 2-amino-4-[(N-butyl-carbamoyl-piperazin-1-yl)]-6-(3,4-dimethoxyphenyl)pteridine] are 400 nM and 100 nM.
Take `COc1ccc(-c2cnc3nc(N)nc(N4CCN(C(=O)N(C)c5ccccc5)CC4)c3n2)cc1OC` [Example 117, 2-amino-4-(N-methyl-N-phenyl-carbamoyl-piperazin-1-yl)-6-(3,4-dimethoxyphenyl)pteridine]: the IC50 in test [1] was found to be 50 nM; in test [2], 72 nM.
Regarding `COc1ccc(-c2cnc3nc(N)nc(N4CCN(C(=O)N(C)c5ccc(C)cc5)CC4)c3n2)cc1OC` [Example 119, 2-amino-4-(N-methyl-N-tolyl-carbamoyl-piperazin-1-yl)-6-(3,4-dimethoxyphenyl)pteridine], the IC50 is 260 nM in test [1] and 300 nM in test [2].
In the case of `COc1ccc(-c2cnc3nc(N)nc(N4CCN(CCN(C(C)C)C(C)C)CC4)c3n2)cc1OC` [Example 128, 2-amino-4-(1-(2-diisopropylaminoethyl)-piperazino)-6-(3,4-dimethoxyphenyl)pteridine], the IC50 was found to be 3300 nM in test [1] and 7400 nM in test [2].
For `COc1ccc(-c2cnc3nc(N)nc(N4CCN(CCN5CCOCC5)CC4)c3n2)cc1OC` [Example 129, 2-amino-4-(1-(2-morpholino4-yl-ethyl)-piperazino)-6-(3,4-dimethoxyphenyl)pteridine] the same measures were 800 nM and 2500 nM.
On the same counts, the results for `COc1ccc(-c2cnc3nc(N)nc(N4CCN(C(=O)CN5CCOCC5)CC4)c3n2)cc1OC` [Example 130, 2-amino-4-(4-[2-(piperazin-1-yl)-acetyl]-morpholino)-6-(3,4-dimethoxy-phenyl)pteridine] are 1400 nM and 1500 nM.
For the compound `CCOC(=O)C(C)N1CCN(c2nc(N)nc3ncc(-c4ccc(OC)c(OC)c4)nc23)CC1` (stereo not shown) [Example 133, 2-amino-4-(2-(piperazin-1-yl)-propionic acid ethyl ester)-6-(3,4-dimethoxyphenyl)pteridine], the values for the IC50 in test [1] and in test [2] were 330 nM and 1200 nM, respectively.
As for `COc1ccc(-c2cnc3nc(N)nc(N4CCN(Cc5c(Cl)cccc5Cl)CC4)c3n2)cc1OC` [Example 137, 2-amino-4-[(2,6-dichlorobenzyl)piperazin-1-yl]-6-(3,4-dimethoxyphenyl)pteridine], the results for the IC50 in test [1] and in test [2] were 700 nM and 7600 nM, respectively.
For `COc1ccc(-c2cnc3nc(N)nc(N4CCN(Cc5ccccc5F)CC4)c3n2)cc1OC` [Example 141, 2-amino-4-((2-fluorobenzyl)piperazin-1-yl)-6-(3,4-dimethoxyphenyl)pteridine] the same measures were 200 nM and 700 nM.
On the same counts, the results for `COc1ccc(-c2cnc3nc(N)nc(N4CCN(Cc5ccc(C(C)(C)C)cc5)CC4)c3n2)cc1OC` [Example 144, 2-amino-4-((4-tert-butylbenzyl)piperazin-1-yl)-6-(3,4-dimethoxyphenyl)pteridine] are 700 nM and 4300 nM.
On the same counts, the results for `COc1ccc(-c2cnc3nc(N)nc(N4CCN(c5ccncc5)CC4)c3n2)cc1OC` [Example 145, 2-amino-4-((4-pyridyl)-piperazin-1-yl)-6-(3,4-dimethoxyphenyl)pteridine] are 4400 nM and 3500 nM.
For `COc1ccc(-c2cnc3nc(N)nc(N4CCN(Cc5cccc6ccccc56)CC4)c3n2)cc1OC` [Example 158, 2-amino-4-((1-naphtylmethyl)-piperazin-1-yl)-6-(3,4-dimethoxyphenyl)pteridine], the IC50 in test [1] amounted to 700 nM; in test [2] it was 800 nM.
Regarding `COc1ccc(-c2cnc3nc(N)nc(N4CCN(c5ccccc5OC)CC4)c3n2)cc1OC` [Example 160, 2-amino-4-((2-methoxyphenyl)-piperazin-1-yl)-6-(3,4-dimethoxyphenyl)pteridine], the concentration for half-maximal inhibition (IC50) in test [1] is 420 nM; in test [2], 3800 nM.
As for `COc1ccc(-c2cnc3nc(N)nc(N4CCN(CCC#N)CC4)c3n2)cc1OC` [Example 163, 2-amino-6-(3,4-dimethoxyphenyl)-4-(4-(3-propionitril)-piperazin-1-yl)pteridine], the IC50 in test [1] and in test [2] was 500 nM throughout.
Regarding `COc1ccc(-c2cnc3nc(N)nc(N4CCN(CC(C)C)CC4)c3n2)cc1OC` [Example 168, 2-amino-6-(3,4-dimethoxyphenyl)-4-(1-isobutyl-piperazin-1-yl)pteridine], the IC50 in test [1] was found to be 90 nM; in test [2] it was 1600 nM.
As to `COc1ccc(-c2cnc3nc(N)nc(N4CCN(c5cc(Cl)cc(Cl)c5)CC4)c3n2)cc1OC` [Example 171, 2-amino-4-((3,5-dichlorophenyl)-piperazin-1-yl)-6-(3,4-dimethoxyphenyl)pteridine], the results for the concentration for half-maximal inhibition (IC50) in test [1] and in test [2] were 500 nM and 3400 nM, respectively.
In the case of `COc1ccc(-c2cnc3nc(N)nc(N4CCN(Cc5ccccn5)CC4)c3n2)cc1OC` [Example 177, 2-amino-6-(3,4-dimethoxyphenyl)-4-((2-pyridyl)methyl-piperazin-1-yl)pteridine], the IC50 in test [1] came out at 90 nM; in test [2], 800 nM.
On the same counts, the results for `COc1ccc(-c2cnc3nc(N)nc(N4CCN(CC5CCCN(C)C5)CC4)c3n2)cc1OC` (stereo not shown) [Example 179, 2-amino-6-(3,4-dimethoxyphenyl)-4-(1-(1-methyl-piperidin-3-yl-methyl)-piperazin-1-yl)pteridine] are 1800 nM and 7900 nM.
With `COc1ccc(-c2cnc3nc(N)nc(N4CCN(c5ccc(C(F)(F)F)cc5[N+](=O)[O-])CC4)c3n2)cc1OC` [Example 185, 2-amino-4-[4-trifluoromethyl-2-nitro-phenyl-piperazin-1-yl)-6-(3,4-dimethoxyphenyl)pteridine], the IC50 in test [1] came to 500 nM; in test [2], 1900 nM.
For `COc1ccc(-c2cnc3nc(N)nc(N4CCN(c5ccc([N+](=O)[O-])cc5C(F)(F)F)CC4)c3n2)cc1OC` [Example 186, 2-amino-4-[2-trifluoromethyl-4-nitro-phenyl-piperazin-1-yl)-6-(3,4-dimethoxyphenyl)pteridine] the same measures were 400 nM and 5000 nM.
